We go through 2 compounds from patent EP0722733A1, “BLOOD VESSEL THICKENING INHIBITOR AND SMOOTH MUSCLE FIBER MIGRATION INHIBITOR EACH CONTAINING 7-THIAPROSTAGLANDIN E 1? COMPOUND AS ACTIVE INGREDIENT” (TEIJIN LIMITED, priority 1993, dated 1995).

Data set [1] has as its system rat vascular smooth muscle cells (SMC). As to the kind of experiment: Suppression of PDGF-induced wandering of rat vascular smooth muscle cells in vitro (blind well chamber). Particulars: PDGF 20 ng/ml, 4 hours; for No. of wandering cells: average ± standard error, n=3, control 176±19; for Suppression rate: cell wandering suppression rate = 100 - (T/C x 100). In kind it is cell-based, rats. Here is the method: Media tissue of the chest arteries of the rats was sampled in accordance with the method of Ross (J. Cell Biol. 50: 172-186, 1971), then was incubated by a Delvecco Modified Eagle Medium (DMEM) containing 10% fetal calf serum in a CO2 incubator (95% air-5% CO2, 37°C, humidity 100%). The fourth generation cultured cells were used for the experiment. The rat vascular smooth muscle cells (SMC) were freed by a 0.008% trypsin-0.01% EDTA solution and made to wander in DMEM containing 0.1% bovine serum albumin. The wandering of the cells was observed using a 24-well blind well chamber made by Neuro Probe. In the lower chambers were placed 100 µl amounts of a mixture of the cell wandering factor (platelet derived growth factor PDGF 20 ng/ml) and the drug. These were covered by a Nuclepore filter (pore size, 8 µm) made by Corning. 100 µl amounts of the incubation solution containing the drug and in which 5 × 10^5 cells/ml of SMC were made to wander were placed in the top chambers and allowed to stand in a CO2 incubator for 4 hours. After the end of the incubation, the smooth muscle cells were immobilized for each filter, then were Propidum dyed. The cells in the lower chambers were counted in four fields under a laser microscope in a 0.48 mm^2 area field. The average was used as the number of wandering cells.
The rate of suppression of cell wandering (%) was found from the following formula. Cell wandering suppression rate (%) = 100 - (T/C × 100) [formula] wherein, C and T respectively show the number of wandering cells at the time of addition of cell wandering factor minus the number of wandering cells at the time of no addition of cell wandering factor and the number of wandering cells at the time of addition of the drug.

The subject of data set [2] is vascular smooth muscle cells derived from normal human arteries. As to the kind of experiment: Suppression of PDGF-mediated migration of human vascular smooth muscle cells in vitro (Transwell chamber). In kind it is cell-based. Particulars: human PDGF 10 ng/ml, 6 hours; for No. of wandering cells: average cell count of five fields ± standard deviation, control 86.4±20.1. Here is the method:
To investigate the activity of the tested compound to inhibit cell migration, the migrated cells mediated by human platelet derived growth factor (PDGF) were measured in the following way using the vascular smooth muscle cells derived from normal human arteries and according to the method of MaCarthy et al. (J. Cell. Biol. 97, 772-777 (1983)). That is, a Transwell Chamber (Costar Co., registered trademark) was used to measure the inhibitory action. The chamber was divided into two layers, upper and lower, by a 8 µm pore size membrane filter (PVP - free polycarbonate filter, Nucleopore Co., registered trademark). The filter was precoated on its lower surface with 5 µg of rat tail collagen type 1 (Becton Dickinson Co.) To the upper chamber (100 µl) was added a 1.5 × 10^6/ml suspension of cells (DMEM (made by Flow Laboratories Co.) containing 0.1% BSA (made by Nakalai Tesque Co.) In the lower chamber (600 µl) was placed the same solution diluted by human PDGF (made by Becton Dickinson) to give a final concentration of 10 ng/ml. At this time, the tested compound was added in different concentrations to both the upper and lower chambers. The chambers were incubated at 37°C under 5% CO2 for 6 hours, then the filter was removed, fixed in 99.7% methanol, then stained with hematoxylin and eosin. The cells on the upper surface of the filter were removed by wiping with a cotton swab and the cells that had migrated to the lower surface of the filter were counted under a high output microscope (×200, ×400). Usually, five fields were counted per filter. The migrated cells were shown by the average cell count of five fields ± standard deviation. The significant difference was examined by the Student's two-tailed t test.

Data set [3] in a line: Acute toxicity test, oral. Type of data set: in vivo. The following applies: rat, in vivo, po, male SD rats; judged from Table 4. Here is the method:
(§1) The above test compound was tested for acute toxicity using SD rats (6 weeks old, SPE, male) (p.o.), whereupon the results shown in the following Table 4 were obtained.

A further data set relates to SD rats. As to the kind of experiment: Acute toxicity test, oral. In kind it is in vivo. The following applies: male SD rats, 6 weeks old, deaths/animals. Here is the method:
as §1

The test system of data set [4] is Rat Carotid Artery Endothelium. As to the kind of experiment: Suppression of intima thickening after balloon catheter trauma to rat carotid artery endothelium. The following applies: for Intima: from 2 days before to 14 days after surgery, area of thickened intima; for Intima/Media / Media: 14 days after surgery; for Media: area of media; for Suppression rate: intima thickening suppression rate = (1-T/C) x 100 of Intima/Media versus solvent control. Type of data set: in vivo, SD rats. Here is the method: The test was performed in the following manner in accordance with the method of Krauz et al. (Lab. Invest., vol. 49, p. 208, 1983). Male SD rats having a body weight of 400 to 500g was used. The neck of each rat was opened under anesthesia by sodium pentobarbitol, then a balloon catheter (Fogarty, 2F) was inserted from the right external carotid artery until the starting portion of the common carotid artery. The balloon was expanded by physiological saline to such an extent causing a light resistance, then the catheter was pulled out in that state up to the carotid artery to give trauma to the intima. This procedure was repeated three times, then the catheter was withdrawn and the external carotid artery was sewn up. After 14 days, the chest was opened under anesthesia by pentobarbitol, refluxing was performed from the left ventricle by physiological saline containing heparin (20 units/ml), then the left common carotid artery was excised and immobilized by neutral formalin solution. The immobilized carotid artery was dyed by Olsein dye, then the areas of the media and thickened portion of the intima were measured by an image resolution device (LUZEX2D).
The test drug began to be administered subcutaneously at a rate of 1.0 µg/rat/hr or 3.2 µg/rat/hr using a miniosmotic pump buried in the back of the rat from two days before the surgery and was continued until 14 days after the surgery. The activity of the drug in suppressing intima thickening was found from the following formula.

Setting [5] is: 1.0 µg/rat/hr s.c. by miniosmotic pump.

Consider `CCCC[C@@H](C)C[C@H](O)/C=C/[C@H]1[C@H](O)CC(=O)[C@@H]1SCCCCCC(=O)OC` [Test Compound, (17R)-17,20-dimethyl-7-thiaprostaglandin E1 methyl ester], for which the “No. of wandering cells” value in data set [1] (10^-8 M) is on record as 107±15##(T) cells/0.48 mm^2; in data set [1] (10^-9 M) it was 117±19##(T) cells/0.48 mm^2; in data set [2] (10^-7 M), 19.0±11.8; in data set [2] (10^-8 M), 51.0±9.5; in data set [2] (10^-9 M) it was 67.2±15.7. Further, the Suppression rate amounted to 39.2% in data set [1] (10^-8 M); 33.5% in data set [1] (10^-9 M); 78.0% in data set [2] (10^-7 M); 41.0% in data set [2] (10^-8 M); 22.2% in data set [2] (10^-9 M); 13.1% in data set [4] (1.0 µg/rat/hr s.c.). In data set [4] (3.2 µg/rat/hr s.c.), the Suppression rate is 31.4%. The LD50 (in general, the dose at which mortality reaches 50%) in data set [3] was about 100 mg/kg. The values for the No. of deaths with SD rats (20 mg/kg p.o.), with SD rats (100 mg/kg p.o.) and in the data set on SD rats (200 mg/kg p.o.) were 0/2, 1/2 and 2/2, respectively. For the same compound, the Intima turned out to be 0.118 mm² in data set [4] (1.0 µg/rat/hr s.c. by miniosmotic pump, average, standard error in the row below) and 0.093 mm² in data set [4] (3.2 µg/rat/hr s.c. by miniosmotic pump, P < 0.01 vs control). In addition, the Intima/Media turned out to be 0.842 in data set [4] (setting [5]) and 0.630 in data set [4] (3.2 µg/rat/hr s.c. by miniosmotic pump, P < 0.05 vs control). For the same compound, the Media was 0.14 mm² in data set [4] (setting [5]) and 0.158 mm² in data set [4] (3.2 µg/rat/hr s.c. by miniosmotic pump).

As to `CCCCC[C@H](O)/C=C/[C@H]1[C@H](O)CC(=O)[C@@H]1CCCCCCC(=O)O` [Prostaglandin E1, reference compound], the “No. of wandering cells” value is reported as 82.6±17.8 in data set [2] (10^-7 M), 82.4±6.9 in data set [2] (10^-8 M) and 91.0±9.8 in data set [2] (10^-9 M). In addition, the Suppression rate entry in data set [2] (10^-9 M) is given as “No significance”.
